Test results published in US6737383B1, “Herbicidal oxadiazolidines” (priority 1999, dated 2004).

What was measured:
[1] = test system: bedstraw; assay: Test B pre/postemergence bedstraw; assay type: in vivo, Galium aparine
Method in brief: (§1)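 Test chemicals in a non-phytotoxic solvent mixture with surfactant were sprayed preemergence onto planted seeds and postemergence onto plants 2 to 18 cm tall (1- to 4-leaf stage). After twelve to sixteen days in a greenhouse, injury was visually rated against untreated controls from 0 (no effect) to 10 (complete control).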

[2] = test system: blackgrass; assay: Test B pre/postemergence blackgrass; assay type: in vivo, Alopecurus myosuroides
Method in brief: as §1

[3] = test system: surinam grass; assay: Test B pre/postemergence surinam grass; assay type: in vivo, Brachiaria decumbens
Method in brief: as §1

[4] = test system: cocklebur; assay: Test B pre/postemergence cocklebur; assay type: in vivo, Xanthium strumarium
Method in brief: as §1

[5] = test system: corn; assay: Test B pre/postemergence corn; assay type: in vivo, Zea mays
Method in brief: as §1

[6] = test system: giant foxtail; assay: Test B pre/postemergence giant foxtail; assay type: in vivo, Setaria faberii
Method in brief: as §1

[7] = test system: morningglory; assay: Test B pre/postemergence morningglory; assay type: in vivo, Ipomoea hederacea
Method in brief: as §1

[8] = test system: pigweed; assay: Test B pre/postemergence pigweed; assay type: in vivo, Amaranthus retroflexus; details: for Plant response rating, Redroot pigweed: Postemergence
Method in brief: as §1

[9] = test system: rape; assay: Test B pre/postemergence rape; assay type: in vivo, Brassica napus
Method in brief: as §1

[10] = test system: sugar beet; assay: Test B pre/postemergence sugar beet; assay type: in vivo, Beta vulgaris; details: for Plant response rating, Sugarbeets: Postemergence
Method in brief: as §1

[11] = test system: velvetleaf; assay: Test B pre/postemergence velvetleaf; assay type: in vivo, Abutilon theophrasti; details: for Plant response rating, Velvetleaf: Postemergence
Method in brief: as §1

[12] = test system: purple nutsedge; assay: Test B pre/postemergence purple nutsedge; assay type: in vivo, Cyperus rotundus
Method in brief: as §1

[13] = test system: rice; assay: Test B flood test rice; assay type: in vivo, Oryza sativa
Method in brief: (§2)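 Read-out is a visual response score from 0 (no effect) to 10 (complete control), assigned by comparison with untreated controls. Treatment was applied at the 2-leaf stage, and plants stayed in the greenhouse for twelve to sixteen days before scoring.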

[14] = test system: duck salad; assay: Test B flood test duck salad; assay type: in vivo, Heteranthera limosa
Method in brief: as §2

[15] = test system: bamyardgrass; assay: Test B flood test barnyardgrass; assay type: in vivo, Echinochloa crus-galli
Method in brief: as §2

[16] = Postemergence, Rate 62 g/ha, scale of 0 to 10, 0 is no effect, 10 is complete control
[17] = Postemergence, Rate 500 g/ha, scale of 0 to 10 where 0 is no effect and 10 is complete control
[18] = Preemergence, Rate 62 g/ha, scale 0 to 10 (0 no effect, 10 complete control)
[19] = Preemergence, Rate 125 g/ha, scale of 0 to 10 where 0 is no effect and 10 is complete control
[20] = Preemergence, Rate 500 g/ha, scale of 0 to 10 where 0 is no effect and 10 is complete control
[21] = Rate 250 g/ha, Postemergence, scale of 0 to 10 where 0 is no effect and 10 is complete control
[22] = Postemergence, Rate 125 g/ha, scale of 0 to 10 where 0 is no effect and 10 is complete control
[23] = Rate 125 g/ha, scale of 0 to 10 where 0 is no effect and 10 is complete control
[24] = Rate 500 g/ha, scale of 0 to 10 where 0 is no effect and 10 is complete control
[25] = Rate 250 g/ha, scale of 0 to 10 where 0 is no effect and 10 is complete control
[26] = Rate 62 g/ha, flood test species, Pre-emergence, visual evaluation after twelve to sixteen days
[27] = Rate 125 g/ha, under heading Pre-emergence, flood test species, visual evaluation after twelve to sixteen days
[28] = Rate 250 g/ha, Pre-emergence (flood test species), scale 0 to 10, 0 is no effect, 10 is complete control
[29] = Rate 500 g/ha, Pre-emergence section of Table B, 0 to 10 scale (0 no effect, 10 complete control)

`CC(C)N(C(=O)n1oc(=O)n(CC2CCC2)c1=O)c1ccccc1` [Compound 580] was tested, and the “Bedstraw plant response rating” value [1, 16] was 3, the “Plant response rating, Bedstraw” value [1, 17] was 9 and the “Bedstraw plant response rating” value [1, 18] was 0. The “Bedstraw plant response rating” value [1, 19] was 4, the “Bedstraw plant response rating (0 to 10 scale)” value ([1]; Preemergence, Rate 250 g/ha) was 6 and the “Bedstraw plant response rating” value [1, 20] was 6. For the same compound, the “Plant response rating, Bedstraw” value [1, 21] was 0, the “Blackgrass plant response rating” value [2, 16] was 2 and the “Plant response rating, Blackgrass” value [2, 22] was 6. The “Plant response rating, Blackgrass” value [2, 17] was 7, the “Blackgrass plant response rating” value [2, 18] was 0 and the “Blackgrass plant response rating” value [2, 19] was 3. The “Blackgrass plant response rating (0 to 10 scale)” value ([2]; Preemergence, Rate 250 g/ha) was 7, the “Blackgrass plant response rating” value [2, 20] was 7 and the “Plant response rating, Blackgrass” value [2, 21] was 7. The “B. signalgrass plant response rating” value [3, 16] was 0, the “Plant response rating, B. signalgrass” value [3, 22] was 2 and the “Plant response rating, B. signalgrass” value [3, 17] was 8. The “B. signalgrass plant response rating” value [3, 18] was 2, the “B. signalgrass plant response rating” value [3, 19] was 6 and the “B. signalgrass plant response rating (0 to 10 scale, 0 is no effect, 10 is complete control)” value ([3]; Preemergence, Rate 250 g/ha) was 6. The “B. signalgrass plant response rating” value [3, 20] was 9, the “Plant response rating, B. signalgrass” value [3, 21] was 5 and the “Cocklebur plant response rating” value [4, 16] was 3. For the same compound, the “Plant response rating, Cocklebur” value [4, 22] was 3, the “Plant response rating, Cocklebur” value [4, 17] was 6 and the “Cocklebur plant response rating” value [4, 18] was 0. The “Cocklebur plant response rating” value [4, 19] was 0, the “Cocklebur plant response rating (0 to 10 scale)” value ([4]; Preemergence, Rate 250 g/ha) was 0 and the “Cocklebur plant response rating” value [4, 20] was 3. For the same compound, the “Plant response rating, Cocklebur” value [4, 21] was 3, the “Corn plant response rating” value [5, 16] was 0 and the “Plant response rating, Corn” value [5, 22] was 0. For the same compound, the “Plant response rating, Corn” value [5, 17] was 0, the “Corn plant response rating” value [5, 18] was 0 and the “Corn plant response rating” value [5, 19] was 0. For the same compound, the “Corn plant response rating (0 to 10 scale)” value ([5]; Preemergence, Rate 250 g/ha) was 2, the “Corn plant response rating” value [5, 20] was 5 and the “Plant response rating, Corn” value [5, 21] was 0. For the same compound, the “Giant foxtail plant response rating” value [6, 16] was 0, the “Plant response rating, Giant foxtail” value [6, 22] was 6 and the “Plant response rating, Giant foxtail” value [6, 17] was 8. The “Giant foxtail plant response rating” value [6, 18] was 9, the “Giant foxtail plant response rating” value [6, 19] was 9 and the “Giant foxtail plant response rating (0 to 10 scale)” value ([6]; Preemergence, Rate 250 g/ha) was 10. For the same compound, the “Giant foxtail plant response rating” value [6, 20] was 10, the “Plant response rating, Giant foxtail” value [6, 21] was 8 and the “Morningglory plant response rating” value [7, 16] was 7. For the same compound, the “Plant response rating, Morningglory” value [7, 22] was 7, the “Plant response rating, Morningglory” value [7, 17] was 10 and the “Morningglory plant response rating” value [7, 18] was 0. The “Morningglory plant response rating” value [7, 19] was 0, the “Morningglory plant response rating (0 to 10 scale)” value ([7]; Preemergence, Rate 250 g/ha) was 0 and the “Morningglory plant response rating” value [7, 20] was 0. The “Plant response rating, Morningglory” value [7, 21] was 8, the “Plant response rating, Redroot pigweed” value [8, 23] was 5 and the “Plant response rating, Redroot pigweed” value [8, 24] was 9. For the same compound, the “Redroot pigweed plant response rating” value [8, 18] was 9, the “Redroot pigweed plant response rating” value [8, 19] was 10 and the “Redroot pigweed plant response rating (0 to 10 scale)” value ([8]; Preemergence, Rate 250 g/ha) was 10. For the same compound, the “Redroot pigweed plant response rating” value [8, 20] was 10, the “Plant response rating, Redroot pigweed” value [8, 25] was 5 and the “Rape plant response rating” value [9, 16] was 4. The “Plant response rating, Rape” value [9, 22] was 6, the “Plant response rating, Rape” value [9, 17] was 8 and the “Rape plant response rating” value [9, 18] was 0. For the same compound, the “Rape plant response rating” value [9, 19] was 3, the “Rape plant response rating (0 to 10 scale)” value ([9]; Preemergence, Rate 250 g/ha) was 7 and the “Rape plant response rating” value [9, 20] was 8. The “Plant response rating, Rape” value [9, 21] was 7, the “Plant response rating, Sugarbeets” value [10, 23] was 4 and the “Plant response rating, Sugarbeets” value [10, 24] was 6. For the same compound, the “Sugarbeets plant response rating” value [10, 18] was 0, the “Sugarbeets plant response rating” value [10, 19] was 0 and the “Sugarbeets plant response rating (0 to 10 scale)” value ([10]; Preemergence, Rate 250 g/ha) was 4. The “Sugarbeets plant response rating” value [10, 20] was 5, the “Plant response rating, Sugarbeets” value [10, 25] was 5 and the “Plant response rating, Velvetleaf” value [11, 23] was 2. The “Plant response rating, Velvetleaf” value [11, 24] was 3, the “Velvetleaf plant response rating” value [11, 18] was 0 and the “Velvetleaf plant response rating” value [11, 19] was 0. For the same compound, the “Velvetleaf plant response rating (0 to 10 scale)” value ([11]; Preemergence, Rate 250 g/ha) was 2, the “Velvetleaf plant response rating” value [11, 20] was 5 and the “Plant response rating, Velvetleaf” value [11, 25] was 2. For the same compound, the “Nutsedge plant response rating” value [12, 16] was 0, the “Plant response rating, Nutsedge” value [12, 22] was 0 and the “Nutsedge plant response rating” value [12, 18] was 0. For the same compound, the “Nutsedge plant response rating” value [12, 19] was 0, the “Nutsedge plant response rating (0 to 10 scale)” value ([12]; Preemergence, Rate 250 g/ha) was 0 and the “Nutsedge plant response rating” value [12, 20] was 5. The “Plant response rating, Rice (0 to 10 scale, 0 is no effect, 10 is complete control)” value [13, 26] was 0, the “Rice plant response rating (0 to 10 scale, 0 is no effect, 10 is complete control)” value [13, 27] was 0 and the “Rice plant response rating” value [13, 28] was 0. For the same compound, the “Rice plant response rating” value [13, 29] was 0, the “Plant response rating, Ducksalad (0 to 10 scale, 0 is no effect, 10 is complete control)” value [14, 26] was 0 and the “Ducksalad plant response rating (0 to 10 scale, 0 is no effect, 10 is complete control)” value [14, 27] was 0. The “Ducksalad plant response rating” value [14, 28] was 0, the “Ducksalad plant response rating” value [14, 29] was 0 and the “Plant response rating, Barnyardgrass (0 to 10 scale, 0 is no effect, 10 is complete control)” value [15, 26] was 0. For the same compound, the “Barnyardgrass plant response rating (0 to 10 scale, 0 is no effect, 10 is complete control)” value [15, 27] was 0, the “Barnyardgrass plant response rating” value [15, 28] was 0 and the “Barnyardgrass plant response rating” value [15, 29] was 0.
